Reference: US6664249B1, “Bicyclic vasopressin agonists” (Ferring BV, priority 1999, dated 2003)

system: Brattleboro rat; experiment: urine output in Brattleboro rats (model of vasopressin deficiency); assay type: in vivo; conditions: 1 mg/kg p.o. in methylcellulose, vs control animals
Experimental: The Brattleboro rat is a recognised model for vasopressin deficiency (for a review see F D Grant, “Genetic models of vasopressin deficiency”, Exp. Physiol. 85, 203S-209S, 2000). […] Compounds of the invention were administered to Brattleboro rats (0.1-10 mg/kg p.o. in methylcellulose. Urine was collected hourly and volumes were compared with control animals. Animals had free access to food and water throughout the experiment. Representative results are given in the Table. Results for Desmopressin are given for comparison.

Point of comparison: `CCOC(=O)CNC(=O)NCc1ccc(C(=O)N2CCCCc3ccccc32)cc1C` [Example 5, 1-(4-[N-(2-Ethoxy-2-oxoethylcarbamoyl)aminomethyl]-3-methylbenzoyl)-2,3,4,5-tetrahydro-1H-1-benzazepine], “% inhibition of urine output (at 1 hour)” value 74%. Against it:
- Cc1cc(C(=O)N2CCCCc3ccccc32)ccc1CNC(=O)NCC(=O)O [Example 6, 1-(4-[N-(Carboxymethylcarbamoyl)aminomethyl]-3-methylbenzoyl)-2,3,4,5-tetrahydro-1H-1-benzazepine] — lower, 38%
- Cc1cc(C(=O)N2CCCCc3ccccc32)ccc1CNC(=O)NCC(=O)N1CCCCC1 [Example 25, 1-(3-methyl-4-[N-(2-(1-piperidino)-2-oxoethylcarbamoyl)aminomethyl]benzoyl)-2,3,4,5-tetrahydro-1H-1-benzazepine] — lower, 58%

With `Cc1cc(C(=O)N2CCCCc3ccccc32)ccc1CNC(=O)NCC(=O)N(C)C` [Example 8, 1-(4-[N-(2-Dimethylamino-2-oxoethylcarbamoyl)aminomethyl]-3-methylbenzoyl)-2,3,4,5-tetrahydro-1H-1-benzazepine] the “% inhibition of urine output (at 1 hour)” value was 45-82%.
